# Biological target: ALK2 (Homo sapiens (Human), UniProt Q04771)
# Experiment: ALK2 inhibition, LanthaScreen Eu Kinase Binding Assay (ThermoFisher Scientific / Life Technologies)
# Conditions: read-out: Measured Ki (IC50) Value for Compounds: IC50
# Method: Biochemical assays to measure the inhibitory effects of the compounds were performed by ThermoFisher Scientific (Life Technologies). ALK2 inhibition was tested using LanthaScreen™ Eu Kinase Binding Assay screening protocol.
# ALK2, sequence (Q04771 21-509): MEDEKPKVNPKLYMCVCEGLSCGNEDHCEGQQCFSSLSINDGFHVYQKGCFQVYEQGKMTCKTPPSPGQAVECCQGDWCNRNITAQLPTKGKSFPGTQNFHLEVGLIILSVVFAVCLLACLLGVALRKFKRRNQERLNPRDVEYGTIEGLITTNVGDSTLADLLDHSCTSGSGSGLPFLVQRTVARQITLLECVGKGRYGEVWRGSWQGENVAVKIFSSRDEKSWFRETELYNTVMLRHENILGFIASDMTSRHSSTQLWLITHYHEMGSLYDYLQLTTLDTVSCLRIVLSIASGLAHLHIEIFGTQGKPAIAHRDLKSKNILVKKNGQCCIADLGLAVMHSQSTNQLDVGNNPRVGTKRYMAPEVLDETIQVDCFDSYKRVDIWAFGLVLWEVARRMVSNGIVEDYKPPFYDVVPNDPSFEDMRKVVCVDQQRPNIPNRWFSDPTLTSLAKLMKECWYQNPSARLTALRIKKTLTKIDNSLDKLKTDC
row,SMILES,IC50 [µM]
1,"OC[C@@H]1CCCN1c1nc(Nc2cc(-c3ccccc3)[nH]n2)nc2ccoc12 [Compound 354b, (S)-(1-(2-((5-phenyl-1H-pyrazol-3-yl)amino)furo[3,2-d]pyrimidin-4-yl)pyrrolidin-2-yl)methanol]",> 1
2,"COc1cc(-n2cnc(Nc3nc(N4CCC[C@H]4CO)c4c(ccn4S(=O)(=O)c4ccc(C)cc4)n3)c2)cc(OC)c1OC [Compound 180b, (S)-(1-(5-tosyl-2-((1-(3,4,5-trimethoxyphenyl)-1H-imidazol-4-yl)amino)-5H-pyrrolo[3,2-d]pyrimidin-4-yl)pyrrolidin-2-yl)methanol]",< 0.1
3,"COc1cc(-n2cnc(Nc3nc(N4CCC[C@H]4CO)nc4c3cnn4[C@H]3CC[C@@H](O)CC3)c2)cc(OC)c1OC [Compound 457c, (cis)-4-(6-((S)-2-(hydroxymethyl)pyrrolidin-1-yl)-4-((1-(3,4,5-trimethoxyphenyl)-1H-imidazol-4-yl)amino)-1H-pyrazolo[3,4-d]pyrimidin-1-yl)cyclohexanol]",< 0.1
4,"COc1ccc(-c2csc3c(Nc4cn(-c5ccccc5)cn4)nc(N4CCC[C@H]4CO)nc23)cc1 [Compound 89a, (S)-(1-(7-(4-methoxyphenyl)-4-(1-phenyl-1H-imidazol-4-ylamino)thieno[3,2-d]pyrimidin-2-yl)pyrrolidin-2-yl)methanol]",0.1 to 1
5,"COc1cc(-c2nnc(Nc3nc(N4CCC[C@H]4CO)c4cccn4n3)o2)cc(OC)c1OC [Compound 418b, (S)-(1-(2-((5-(3,4,5-trimethoxyphenyl)-1,3,4-oxadiazol-2-yl)amino)pyrrolo[2,1-f][1,2,4]triazin-4-yl)pyrrolidin-2-yl)methanol]",> 1
6,"COc1cc(-n2cnc(Nc3nc(N4CCC[C@H]4CO)c4c(C)nn(CC5CC5)c4n3)c2)cc(OC)c1OC [Compound 463c, (S)-(1-(1-(cyclopropylmethyl)-3-methyl-6-((1-(3,4,5-trimethoxyphenyl)-1H-imidazol-4-yl)amino)-1H-pyrazolo[3,4-d]pyrimidin-4-yl)pyrrolidin-2-yl)methanol]",< 0.1
7,"COc1cc(-n2cnc(Nc3nc(N4CCC[C@H]4C(=O)NC4CC4)nc4ccoc34)c2)cc(OC)c1OC [Compound 247b, (S)—N-cyclopropyl-1-(4-((1-(3,4,5-trimethoxyphenyl)-1H-imidazol-4-yl)amino)furo[3,2-d]pyrimidin-2-yl)pyrrolidine-2-carboxamide]",< 0.1
8,"OC[C@@H]1CCCN1c1nc(Nc2cn(-c3ccc4c(c3)OC(F)(F)O4)cn2)c2ccsc2n1 [Compound 432a, (S)-(1-(4-((1-(2,2-difluorobenzo[d][1,3]dioxol-5-yl)-1H-imidazol-4-yl)amino)thieno[2,3-d]pyrimidin-2-yl)pyrrolidin-2-yl)methanol]",0.1 to 1
9,"CC(C)(C)OC(=O)N1CC=C(c2ccc3c(Nc4cn(-c5ccccc5)cn4)nc(N4CCC[C@H]4CO)nn23)CC1 [Compound 80a, (S)-tert-butyl 4-(2-(2-(hydroxymethyl)pyrrolidin-1-yl)-4-(1-phenyl-1H-imidazol-4-ylamino)pyrrolo[1,2-f][1,2,4]triazin-7-yl)-5,6-dihydropyridine-1(2H)-carboxylate]",0.1 to 1
10,"Cn1cnc(Nc2nc(N3CCC[C@H]3CO)nn3cccc23)c1 [Compound 6a, (S)-(1-(4-(1-methyl-1H-imidazol-4-ylamino)pyrrolo[1,2-f][1,2,4]triazin-2-yl)pyrrolidin-2-yl)methanol]",0.1 to 1
11,"COc1cc(-n2cnc(Nc3nc(N4CCC[C@H]4CO)nc4c3cnn4C)c2)cc(OC)c1OC [Compound 336c, (S)-(1-(1-methyl-4-((1-(3,4,5-trimethoxyphenyl)-1H-imidazol-4-yl)amino)-1H-pyrazolo[3,4-d]pyrimidin-6-yl)pyrrolidin-2-yl)methanol]",< 0.1
12,"c1ccc([C@@H]2CCCN2c2nc(Nc3cn(C4CCCCC4)cn3)c3cccn3n2)cc1 [Compound 46a, (S)—N-(1-cyclohexyl-1H-imidazol-4-yl)-2-(2-phenylpyrrolidin-1-yl)pyrrolo[2,1-f][1,2,4]triazin-4-amine]",0.1 to 1
13,"OC[C@@H]1CCCN1c1nc(Nc2cn(C3CC3)cn2)c2cccn2n1 [Compound 26c, (S)-(1-(4-((1-cyclopropyl-1H-imidazol-4-yl)amino)pyrrolo[2,1-f][1,2,4]triazin-2-yl)pyrrolidin-2-yl)methanol]",0.1 to 1
14,"COc1cc(-n2cnc(Nc3nc(N4CCC[C@H]4CO)c4ccc(C5=CCNCC5)cc4n3)c2)cc(OC)c1OC [Compound 385c, (S)-(1-(7-(1,2,3,6-tetrahydropyridin-4-yl)-2-((1-(3,4,5-trimethoxyphenyl)-1H-imidazol-4-yl)amino)quinazolin-4-yl)pyrrolidin-2-yl)methanol]",< 0.1

# Results, then the compound that gave them:
row,IC50 [µM],SMILES
1,< 0.1,"Cn1cnc(Nc2nc(N3CCC[C@H]3c3ccccc3)nn3cccc23)c1 [Compound 15a, (S)—N-(1-methyl-1H-imidazol-4-yl)-2-(2-phenylpyrrolidin-1-yl)pyrrolo[2,1-f][1,2,4]triazin-4-amine]"
2,< 0.1,"COc1cc(-n2cnc(Nc3nc(N4CCC[C@@H]4CO)nc4cc(Br)ccc34)c2)cc(OC)c1OC [Compound 382a, (R)-(1-(7-bromo-4-((1-(3,4,5-trimethoxyphenyl)-1H-imidazol-4-yl)amino)quinazolin-2-yl)pyrrolidin-2-yl)methanol]"
3,< 0.1,"COc1cc(-n2cnc(Nc3nc(N4CC(F)(F)C[C@H]4CO)c4cccn4n3)c2)cc(OC)c1OC [Compound 223b, (S)-(4,4-difluoro-1-(2-((1-(3,4,5-trimethoxyphenyl)-1H-imidazol-4-yl)amino)pyrrolo[2,1-f][1,2,4]triazin-4-yl)pyrrolidin-2-yl)methanol]"
4,> 1,"OC[C@@H]1CCCN1c1nc(Nc2cn(-c3ccc(OC(F)(F)F)c(Br)c3)cn2)c2cccn2n1 [Compound 420e, (S)-(1-(4-((1-(3-bromo-4-(trifluoromethoxy)phenyl)-1H-imidazol-4-yl)amino)pyrrolo[2,1-f][1,2,4]triazin-2-yl)pyrrolidin-2-yl)methanol]"
5,< 0.1,"COc1c(C(C)=O)ccc(-n2cnc(Nc3nc(N4CCC[C@H]4CO)nn4cccc34)c2)c1OC [Compound 212g, (S)-1-(4-(4-((2-(2-(hydroxymethyl)pyrrolidin-1-yl)pyrrolo[2,1-f][1,2,4]triazin-4-yl)amino)-1H-imidazol-1-yl)-2,3-dimethoxyphenyl)ethanone]"
6,0.1 to 1,"COc1cc(-n2cnc(Nc3nc(N4CCC[C@H]4C(N)=O)c4cccnc4n3)c2)cc(OC)c1OC [Compound 203b, (S)-1-(2-((1-(3,4,5-trimethoxyphenyl)-1H-imidazol-4-yl)amino)pyrido[2,3-d]pyrimidin-4-yl)pyrrolidine-2-carboxamide]"
7,> 1,"COc1cc(-n2cnc(Nc3nc(N4CCC[C@H]4CO)nc4ccn(S(=O)(=O)c5ccc(C)cc5)c34)c2)cc(OC)c1OC [Compound 160c, (S)-(1-(5-tosyl-4-((1-(3,4,5-trimethoxyphenyl)-1H-imidazol-4-yl)amino)-5H-pyrrolo[3,2-d]pyrimidin-2-yl)pyrrolidin-2-yl)methanol]"
8,< 0.1,"COc1cc(-n2cnc(Nc3nc(N4CCC[C@@H]4CO)nc4cc(N5CCN(C)CC5)ccc34)c2)cc(OC)c1OC [Compound 383a, (R)-(1-(7-(4-methylpiperazin-1-yl)-4-((1-(3,4,5-trimethoxyphenyl)-1H-imidazol-4-yl)amino)quinazolin-2-yl)pyrrolidin-2-yl)methanol]"
9,0.1 to 1,"COc1cc(-n2cnc(Nc3nc(N4CCC[C@@H]4CO)c4cccn4n3)c2)cc(OC)c1OC [Compound 227b, (R)-(1-(2-((1-(3,4,5-trimethoxyphenyl)-1H-imidazol-4-yl)amino)pyrrolo[2,1-f][1,2,4]triazin-4-yl)pyrrolidin-2-yl)methanol]"
10,< 0.1,"COc1cc(-n2cnc(Nc3nc(N4CCCC4)nc4c3CCNC4)c2)cc(OC)c1OC [Compound 184b, 2-(pyrrolidin-1-yl)-N-(1-(3,4,5-trimethoxyphenyl)-1H-imidazol-4-yl)-5,6,7,8-tetrahydropyrido[3,4-d]pyrimidin-4-amine]"
11,< 0.1,"COc1cc(-n2cnc(Nc3nc(N4CCC[C@H]4CO)c4occc4n3)c2)cc(OC)c1OC [Compound 148b, (S)-(1-(2-((1-(3,4,5-trimethoxyphenyl)-1H-imidazol-4-yl)amino)furo[3,2-d]pyrimidin-4-yl)pyrrolidin-2-yl)methanol]"
12,< 0.1,"COc1cc(-n2cnc(Nc3nc(N4CCC[C@H]4CO)c4cnn(C5CCC5)c4n3)c2)cc(OC)c1OC [Compound 464d, (S)-(1-(1-cyclobutyl-6-((1-(3,4,5-trimethoxyphenyl)-1H-imidazol-4-yl)amino)-1H-pyrazolo[3,4-d]pyrimidin-4-yl)pyrrolidin-2-yl)methanol]"
13,0.1 to 1,"OC[C@@H]1CCCN1c1nc(Nc2cn(-c3ccc4c(c3)OC(F)(F)O4)cn2)c2cccn2n1 [Compound 433b, (S)-(1-(4-((1-(2,2-difluorobenzo[d][1,3]dioxol-5-yl)-1H-imidazol-4-yl)amino)pyrrolo[2,1-f][1,2,4]triazin-2-yl)pyrrolidin-2-yl)methanol]"
14,0.1 to 1,"COc1cc(-n2cnc(Nc3nc(N4CCC[C@H]4C(N)=O)nc4cccnc34)c2)cc(OC)c1OC [Compound 161a, (S)-1-(4-((1-(3,4,5-trimethoxyphenyl)-1H-imidazol-4-yl)amino)pyrido[3,2-d]pyrimidin-2-yl)pyrrolidine-2-carboxamide]"
15,< 0.1,"COc1cc(-n2cnc(Nc3nc(N4CCC[C@@H]4C(N)=O)nc4ccsc34)c2)cc(OC)c1OC [Compound 299a, (R)-1-(4-((1-(3,4,5-trimethoxyphenyl)-1H-imidazol-4-yl)amino)thieno[3,2-d]pyrimidin-2-yl)pyrrolidine-2-carboxamide]"
16,< 0.1,"COc1cc(-n2cnc(Nc3nc(N4CCC[C@H]4CO)nn4c(C(=O)N5CCCCC5)ccc34)c2)cc(OC)c1OC [Compound 410e, (S)-(2-(2-(hydroxymethyl)pyrrolidin-1-yl)-4-((1-(3,4,5-trimethoxyphenyl)-1H-imidazol-4-yl)amino)pyrrolo[2,1-f][1,2,4]triazin-7-yl)(piperidin-1-yl)methanone]"

# From patent US11661426B2, “Imidazole-containing inhibitors of ALK2 kinase” (BioCryst Pharmaceuticals, Inc., priority 2017, dated 2023)
